The record followed here is patent US6048854A, “2,3-diaminopropionic acid derivative” (Sumitomo Pharmaceuticals Company, Limited, priority 1993, dated 2000).

The subject of the first experiment is platelet aggregation. The experiment in a line: Platelet aggregation inhibitory activity (ADP-induced, human platelet rich plasma). The experiment is classed as cell-based. Particulars: Homo sapiens, Table 2, same manner as Example 17. As for the experimental part: The blood was collected from the elbow vein of a normal volunteer with mixing thereof with 1/10 volume of 3.8% sodium citrate, and the blood was centrifuged at 1000 rpm (150 g) for 10 minutes to give the supernatant as platelet rich plasma (PRP). To PRP (200 μl) was added a test compound solution (2 μl), and the mixture was incubated with stirring at 1000 rpm at 37° C. for two minutes, and thereto was added a platelet aggregator, adenosine diphosphate (ADP, 22 μl) at a final concentration of 3 μg/ml. The platelet aggregation activity was determined by nephelometric analysis using a Hematracer (manufactured by Niko Bioscience, Ltd.). The test results of platelet aggregation inhibitory activity are expressed by IC50, which is a concentration of the test compound being required to inhibit the platelet aggregation reaction by 50%.
The compounds of Examples 18 to 70 were tested in the same manner as in Example 17.
The compounds of Examples 72 to 116 were tested in the same manner as in Example 17.
The term IC50 denotes the concentration that inhibits the measured activity by half. High values mean a need for much substance, low ones inhibition by little substance. `Cc1ccccc1S(=O)(=O)N[C@@H](CNC(=O)CCNC(=O)CCC1CCNCC1)C(=O)O` [Example 24, (2S)-2-(2-methyl)benzenesulfonylamino-3-(3-(3-(4-piperidyl)propanoylamino)propanoylamino)propanoic Acid]: the IC50 is 30 nM.

`Cc1cccc(S(=O)(=O)N[C@@H](CNC(=O)CCNC(=O)CCC2CCNCC2)C(=O)O)c1` [Example 25, (2S)-2-(3-methyl)benzenesulfonylamino-3-(3-(3-(4-piperidyl)propanoylamino)propanoylamino)propanoic Acid] displayed an IC50 of 22 nM. This IC50 and that of the molecule before are within 1.5-fold of each other.

The molecule `Cc1ccc(S(=O)(=O)N[C@@H](CNC(=O)CCNC(=O)CCC2CCNCC2)C(=O)O)cc1` [Example 26, (2S)-2-(4-methyl)benzenesulfonylamino-3-(3-(3-(4-piperidyl)propanoylamino)propanoylamino)propanoic Acid] came in with an IC50 of 29 nM.

On to `O=C(CCC1CCNCC1)NCCC(=O)NC[C@H](NS(=O)(=O)c1ccccc1C(F)(F)F)C(=O)O` [Example 27], for which inhibition was half-maximal at 26 nM (IC50).

`O=C(CCC1CCNCC1)NCCC(=O)NC[C@H](NS(=O)(=O)c1cccc(C(F)(F)F)c1)C(=O)O` [Example 28, (2S)-3-(3-(3-(4-piperidyl)propanoylamino)propanoylamino)-2-(3-trifluoromethyl)benzenesulfonylaminopropanoic Acid] showed an IC50 of 58 nM.

In turn, `O=C(CCC1CCNCC1)NCCC(=O)NC[C@H](NS(=O)(=O)c1ccc(C(F)(F)F)cc1)C(=O)O` [Example 29, (2S)-3-(3-(3-(4-piperidyl)propanoylamino)propanoylamino)-2-(4-trifluoromethyl)benzenesulfonylaminopropanoic Acid] displayed an IC50 of 170 nM. Compared with the last molecule, the IC50 is about 2.9-fold higher.

As to `O=C(CCC1CCNCC1)NCCC(=O)NC[C@H](NS(=O)(=O)c1ccccc1[N+](=O)[O-])C(=O)O` [Example 30, (2S)-2-(2-nitro)benzenesulfonylamino-3-(3-(3-(4-piperidyl)propanoylamino)propanoylamino)propanoic Acid], half-maximal inhibition (IC50) required 16 nM.

Turning to `O=C(CCC1CCNCC1)NCCC(=O)NC[C@H](NS(=O)(=O)c1cccc([N+](=O)[O-])c1)C(=O)O` [Example 31, (2S)-2-(3-nitro)benzenesulfonylamino-3-(3-(3-(4-piperidyl)propanoylamino)propanoylamino)propanoic Acid], the IC50 was 142 nM.

Molecule `O=C(CCC1CCNCC1)NCCC(=O)NC[C@H](NS(=O)(=O)c1ccc([N+](=O)[O-])cc1)C(=O)O` [Example 32, (2S)-2-(4-nitro)benzenesulfonylamino-3-(3-(3-(4-piperidyl)propanoylamino)propanoylamino)propanoic Acid] displayed an IC50 of 151 nM. The IC50 values of the last two molecules are within 1.5-fold of each other.

The molecule `Cc1cc(C)c(S(=O)(=O)N[C@@H](CNC(=O)CCNC(=O)CCC2CCNCC2)C(=O)O)c(C)c1` [Example 33, (2S)-3-(3-(3-(4-piperidyl)propanoylamino)propanoylamino)-2-(2,4,6-trimethyl)benzenesulfonylaminopropanoic Acid] gave an IC50 of 15 nM.

On to `O=C(CCC1CCNCC1)NCCC(=O)NC[C@H](NS(=O)(=O)c1c(F)c(F)c(F)c(F)c1F)C(=O)O` [Example 34, (2S)-2-(2,3,4,5,6-pentafluoro)benzenesulfonylamino-3-(3-(3-(4-piperidyl)propanoylamino)propanoylamino)propanoic Acid], for which the IC50 amounted to 126 nM.

For the molecule `O=C(CCC1CCNCC1)NCCC(=O)NC[C@H](NS(=O)(=O)c1ccc(F)cc1)C(=O)O` [Example 35, (2S)-2-(4-fluoro)benzenesulfonylamino-3-(3-(3-(4-piperidyl)propanoylamino)propanoylamino)propanoic Acid], the IC50 worked out at 25 nM.

Consider `O=C(CCC1CCNCC1)NCCC(=O)NC[C@H](NS(=O)(=O)c1ccc(Cl)cc1)C(=O)O` [Example 36, (2S)-2-(4-chloro)benzenesulfonylamino-3-(3-(3-(4-piperidyl)propanoylamino)propanoylamino)propanoic Acid], for which the IC50 came out at 62 nM.

With `O=C(CCC1CCNCC1)NCCC(=O)NC[C@H](NS(=O)(=O)c1ccc(Br)cc1)C(=O)O` [Example 37, (2S)-2-(4-bromo)benzenesulfonylamino-3-(3-(3-(4-piperidyl)propanoylamino)propanoylamino)propanoic Acid], the IC50 turned out to be 48 nM.

`CCc1ccc(S(=O)(=O)N[C@@H](CNC(=O)CCNC(=O)CCC2CCNCC2)C(=O)O)cc1` [Example 38, (2S)-2-(4-ethyl)benzenesulfonylamino-3-(3-(3-(4-piperidyl)propanoylamino)propanoylamino)propanoic Acid]: the IC50 worked out at 35 nM.

For the molecule `CC(C)(C)c1ccc(S(=O)(=O)N[C@@H](CNC(=O)CCNC(=O)CCC2CCNCC2)C(=O)O)cc1` [Example 39, (2S)-2-(4-t-butyl)benzenesulfonylamino-3-(3-(3-(4-piperidyl)propanoylamino)propanoylamino)propanoic Acid], half-maximal inhibition (IC50) required 185 nM.

The molecule `COc1ccc(S(=O)(=O)N[C@@H](CNC(=O)CCNC(=O)CCC2CCNCC2)C(=O)O)cc1` [Example 40, (2S)-2-(4-methoxy)benzenesulfonylamino-3-(3-(3-(4-piperidyl)propanoylamino)propanoylamino)propanoic Acid] returned an IC50 of 3 nM.

`O=C(CCC1CCNCC1)NCCC(=O)NC[C@H](NS(=O)(=O)c1cccc2ccccc12)C(=O)O` [Example 41, (2S)-2-(1-naphthalene)sulfonylamino-3-(3-(3-(4-piperidyl)propanoylamino)propanoylamino)propanoic Acid] had an IC50 of 35 nM.

Still in this experiment, the particulars now being: Table 1, human PRP, ADP 3 μg/ml, 37° C.
Consider `CCCCS(=O)(=O)N[C@@H](CNC(=O)CCNC(=O)CCC1CCNCC1)C(=O)O` [Example 3, (2S)-2-butanesulfonylamino-3-(3-(3-(4-piperidyl)propanoylamino)propanoylamino)propanoic Acid], for which 162 nM corresponded to half-maximal inhibition (IC50).

`O=C(CCC1CCNCC1)NCCC(=O)NC[C@H](NC(=O)OCc1ccccc1)C(=O)O` [Example 4, (2S)-2-Benzyloxycarbonylamino-3-(3-(3-(4-piperidyl)propanoylamino)propanoylamino)propanoic Acid]: the IC50 worked out at 513 nM.

In the case of `CCCCS(=O)(=O)N[C@@H](CNC(=O)CNC(=O)CCCC1CCNCC1)C(=O)O` [Example 5, (2S)-2-butanesulfonylamino-3-(N-(4-(4-piperidyl)butanoyl)glycylamino)propanoic Acid], the IC50 was found to be 2990 nM. This IC50 is about 5.8-fold higher than that of the molecule before.

Take `O=C(CCC(=O)NC[C@H](NS(=O)(=O)c1ccccc1)C(=O)O)NCCC1CCNCC1` [Example 6, (2S)-2-benzenesulfonylamino-3-(N-(2-(4-piperidyl)ethyl)succinamylamino)propanoic Acid]: inhibition was half-maximal at 376 nM (IC50). This IC50 lies about 8-fold lower than the previous one.

Molecule `CCCCS(=O)(=O)N[C@@H](CNC(=O)CNC(=O)[C@H](C)N(C)C(=O)CCC1CCNCC1)C(=O)O` [Example 7, (2S)-2-butanesulfonylamino-3-(N-(3-(4-piperidyl)propanoyl)-N-methyl-L-alanylglycylamino)propanoic Acid] returned an IC50 of 1220 nM.

On to `CCCCS(=O)(=O)N[C@@H](CNC(=O)CNC(=O)CCCCCC1CCNCC1)C(=O)O` [Example 8, (2S)-2-butanesulfonylamino-3-(N-(6-(4-piperidyl)hexanoyl)glycylamino)propanoic Acid], for which 583 nM corresponded to half-maximal inhibition (IC50). This IC50 lies about 2.1-fold lower than the previous one.

Take `CCCCS(=O)(=O)N[C@H](CNC(=O)CCNC(=O)CCC1CCNCC1)C(=O)O` [Example 9, (2R)-2-butanesulfonylamino-3-(3-(3-(4-piperidyl)propanoylamino)propanoylamino)propanoic Acid]: the IC50 turned out to be 3630 nM. Compared with the last molecule, the IC50 is about 6.2-fold higher.

Consider `O=C(CCC1CCNCC1)NCCC(=O)NC[C@H](NS(=O)(=O)Cc1ccccc1)C(=O)O` [Example 10, (2S)-2-benzylsulfonylamino-3-(3-(3-(4-piperidyl)propanoylamino)propanoylamino)propanoic Acid], for which the IC50 is 232 nM. This IC50 lies about 16-fold lower than the previous one.

`CCCCC(=O)N[C@@H](CNC(=O)CCNC(=O)CCC1CCNCC1)C(=O)O` [Example 11, (2S)-2-pentanoylamino-3-(3-(3-(4-piperidyl)propanoylamino)propanoylamino)propanoic Acid] displayed an IC50 of 8730 nM.

For the molecule `CCCCS(=O)(=O)N[C@@H](CNC(=O)CNC(=O)CCCCC1CCNCC1)C(=O)O` [Example 12, (2S)-2-butanesulfonylamino-3-(N-(5-(4-piperidyl)pentanoyl)glycylamino)propanoic Acid], the IC50 is 1370 nM.

`CCCCS(=O)(=O)N[C@@H](CNC(=O)CCNC(=O)CCCCC1CCNCC1)C(=O)O` [Example 13, (2S)-2-butanesulfonylamino-3-(3-(5-(4-piperidyl)pentanoylamino)propanoylamino)propanoic Acid] yielded an IC50 of 1810 nM.

Regarding `CCCCS(=O)(=O)N[C@@H](CNC(=O)CNC(=O)[C@H](Cc1ccc(OC)cc1)NC(=O)CCC1CCNCC1)C(=O)O` [Example 14, (2S)-2-butanesulfonylamino-3-(N-(3-(4-piperidyl)propanoyl)-O-methyl-L-tyrosylglycylamino)propanoic Acid], the half-maximal inhibitory concentration (IC50) stood at 6140 nM.

For the molecule `CCCCS(=O)(=O)N[C@@H](CNC(=O)CNC(=O)[C@H](C)NC(=O)CCC1CCNCC1)C(=O)O` [Example 15, (2S)-2-butanesulfonylamino-3-(N-(3-(4-piperidyl)propanoyl)-L-alanylglycylamino)propanoic Acid], the IC50 was 5240 nM.

Take `COc1ccc(C[C@H](NC(=O)CCC2CCNCC2)C(=O)NCC(=O)NC[C@H](NS(C)(=O)=O)C(=O)O)cc1` [Example 16, (2S)-2-methanesulfonylamino-3-(N-(3-(4-piperidyl)propanoyl)-O-methyl-L-tyrosylglycylamino)propanoic Acid]: the IC50 came out at 2530 nM.
